Source: US9125877B2, “Use of kauranes compounds in the manufacture of medicament” (priority 2004, dated 2015)
Entries after “also recorded” stand apart in the source; their conditions may differ. Read-outs that look alike come from different tables or passages of the source.

Columns and labels:
[1] = test system: ischemic heart (occlusion of left coronary artery and reperfusion); assay: Cardiodynamic parameters in the cardiac ischemia-reperfusion rat model; type: in vivo, Sprague-Dawley rats; conditions: stevioside 10 to 15 mg/kg, rats
[2] = test system: ventricular tachycardia and fibrillation caused by coronary ischemia; assay: Arrhythmia (VT, VF) during cardiac ischemia by coronary occlusion; type: in vivo, Sprague-Dawley rats; conditions: for VF Duration / VT Duration / VTorVF Onset / VT + VF score: occlusion of coronary for 20 min; for VT + VF score: score = (duration of VT × 1) + (duration of VF × 2)
Experimental: (§1) Rats were anesthetized, the tracheotomy was performed and an intubation cannula was connected to a respirator for artificial respiration. Arterial blood pressure monitored by a pressure gauge via a femoral artery. A Miller pressure gauge was intervened into left ventricular chamber via a carotid artery to monitor ventricular pressure. The pressure gauges were connected to a Power-lab biological real-time data recording system. ECG was monitored and recorded via subcutaneous needle probes on the arms of rats. The parameters recorded including: Mean arterial blood pressure (MAP), left ventricular systolic pressure (LVSP), the first derivatives of left ventricular pressure (±dp/dtMax), left ventricular diastolic pressure (LVDP), left ventricular end diastolic pressure (LVEDP) and heart rate (HR).
(§2) The chest was open by a left-side thoracotomy between the 4th intercostals space. The pericardium was opened to expose the heart. A stainless needle and a silk suture were placed around the left coronary artery (LCD) and a loose snare ligation was formed. After complete the surgery, the animals were allowed to stabilize for 10 minus before the occlusion of LCD by tightening the snare. A success in occlusion was associated with an area of pericardial cyanosis, an elevation of T wave or ST segment in ECG. The ischemia period of occlusion was maintained from 20 or 30 minus. Cardiac reperfusion was then achieved by releasing of the snare and was confirmed by hyperemic blushing of the previous ischemic area of cyanosis and gradually recovery of the changes in ECG signals. The reperfusion period was maintained for 50 to 80 minus. ECG, MAP and other cardiodynamic data were recorded before the ischemia (control), and during the periods of ischemia and reperfusion.
Arrhythmia of ventricular tachycardia (VT) and fibrillation (VF) are the main causes of death in clinic. In the control group during ischemia, VT occurred in all of the 11 animals, VF occurred in 10 out of the 11 animals, and 3 out of the 11 animals were dead due to continuation of VF. […] The results from both control and testing groups during cardiac ischemia including the frequency of occurrence, onset time and duration of the VT and VF are shown in table 3.

[3] = reported; large amount, under certain condition in vitro; cited from earlier work
[4] = test system: cerebral ischemia; assay: Decapitated mouse model of brain ischemia (mouth-opening); type: in vivo, mice
Experimental: Decapitated mouse model: The mouse first decapitated and the movement of mouth opening was monitored as a sign of respiration. The frequency and duration of mouth-opening was used as an index of cerebral function after decapitation.
The animals were randomly assigned into three groups (n=8, equal number in sex): Control group, only vehicle saline were given; Testing group, compound A (4 mg/kg) dissolved in saline were given; and Positive control group, a reference compound Edaravone (8 mg/kg) dissolved in saline were given, Edaravone is an anti-oxidation drug and has protective effects on neuronal injury (Granl A. et al. 1996).
Vehicle or compounds were administrated intraperitonealy 30 minus before decapitation.

[5] = test system: ischemic heart (occlusion of left coronary artery and reperfusion); assay: Cardiodynamic parameters in the cardiac ischemia-reperfusion rat model; type: in vivo, Sprague-Dawley rats
Experimental: as §1, §2
Control group: occlusion of coronary/ischemia-reperfusion. Testing group: occlusion of coronary/ischemia-reperfusion plus compound A or B
In part of the experiments, the time periods for occlusion and release of coronary were set for 30 min and 80 min, in order to enhance the results of ischemia-reperfusion.

[6] = test system: rats; conditions: cited from earlier work
[7] = test system: ischemic myocardium, myocytes and mitochondria; assay: Morphology of ischemic myocardium under light and electron microscope; type: in vivo, Sprague-Dawley rats
Experimental: At the end of experiments, the ischemic and non-ischemic normal myocardium were excised at the ischemic region respectively from both control or testing groups (compound A 1 mg/kg), and from sham-operated animals at respective region of the heart. The tissues were fixed with paraformaldehyde, embedded in wax, cut into thin or ultra-thin sections, stained and viewed under light or electron microscope.
Analogously to Example 5 except the testing group treated with compound B (2 mg/kg). Myocardiac tissues from non-ischemia, ischemia and testing group animals were excised and prepared as noted above. Myocytes and its ultra structure were examined under light and transmission electron microscope. […] The densities of crestae and matrix appear normal, and the granules normally distributed within mitochondria. […] The histological results were similar to the results from the animal treated with compound A (1 mg/kg) and indicate significant protective effects of compound B on myocardium by alleviating the ischemic damage of myocytes and mitochondria.

[8] = Solubility in water; type: physicochemical; conditions: free acid, before salt formation
Experimental: The salts can be sodium, potassium or other inorganic salts. A preferred method is to use sodium. The method is the following: A solution of […] of NaOH is prepared. The liquid sodium salt of compound A or B was formed by dissolving 1 g of the compound A or B into 10 ml of the above NaOH solution and adjusting the PH to neutral. This liquid sodium salt can be further diluted with sterile water or mixed with pharmaceutical carrier at needed concentration for parenteral administration. It can be stored at room temperature.

[9] = No obvious toxicity dose, administered intravenously (the invention); type: in vivo
[10] = test system: arterial pressure; conditions: 25 mg/kg intraperitoneal in rats; cited from earlier work
[11] = test system: ischemic myocardium; assay: Infarct size of myocardium after ischemia-reperfusion (Evans blue); type: in vivo, Sprague-Dawley rats; conditions: compound A 1 mg/kg; control 58.6±4.7%; weight of infarct tissue/(infarct + ischemia tissue)
Source text: as §2, with “The reperfusion period was maintained for 50 to 80 minus.” left out
Determination of the infarct size of myocardium: In both control and testing groups, After the end of reperfusion period, the coronary was occluded, Evans blue dye (1%, 0.5 ml) was injected to determine the ischemic and non-ischemic area of myocardium. […] After weighing the respective tissue samples, the infarction size of myocardium was calculated and express as following: Size of infarction=weight of infarct tissue/(weight of infarct tissue+weight of ischemia tissue) x %.

[12] = test system: mice; conditions: cited from earlier work
[13] = test system: ischemic heart (left anterior descending coronary artery); assay: Pig coronary ischemia-reperfusion by balloon-tip catheter in LAD; type: in vivo
Source text: At an extremely high dose, the said effects may be abrogated. In a pig study in the invention, a balloon-tip catheter was intervened into left anterior descending coronary artery (LAD) under the guidance of X-ray angiograph. Coronary ischemia and reperfusion was reproduced by inflating or deflating the balloon. […] Kaurene compounds at this large dose may initiate an opposite or undesired effect which can diminish or override the therapeutic effects mentioned above.

[14] = intravenous injection, previously reported; cited from earlier work
[15] = 8 mg/kg intraperitoneal 30 min before decapitation
[16] = compound B 2 mg/kg, before ischemia
[17] = compound B 2 mg/kg, during ischemia
[18] = compound B 2 mg/kg, during reperfusion
[19] = 4 mg/kg intraperitoneal 30 min before decapitation
[20] = compound A 1 mg/kg i.v., before ischemia
[21] = compound A 1 mg/kg i.v., ischemia
[22] = compound A 1 mg/kg i.v., reperfusion

C=C1C[C@@]23CC[C@H]4[C@@](C)(CCC[C@@]4(C)C(=O)O[C@@H]4O[C@H](CO)[C@@H](O)[C@H](O)[C@H]4O)[C@@H]2CC[C@]1(O[C@@H]1O[C@H](CO)[C@@H](O)[C@H](O)[C@H]1O[C@@H]1O[C@H](CO)[C@@H](O)[C@H](O)[C@H]1O)C3 [stevioside, reference compound]
therapeutic effects on cardiac contractile function [1]: No significant therapeutic effects | therapeutic effects on arrhythmia ([2]; stevioside 10 to 15 mg/kg, rats): No significant therapeutic effects

C=C1C[C@@]23CC[C@H]4[C@@](C)(CCC[C@@]4(C)C(=O)O)[C@@H]2CC[C@]1(O)C3 (single isomer, unassigned; ent-13) [Compound B, ent-13-hydroxykaur-16-en-18-oic acid]
mutagenic effects [3]: certain mutagenic effects; also recorded: may be mutagenic | Duration of mouth-opening [4, 15]: 20.1 ± 4.1 s | Frequency of mouth-opening [4, 15]: 12.8 ± 2.7 | +dp/dtMax. LVSP [5, 16]: 8609±543 mmHg/sec | LVSP [5, 16]: 112±5 mmHg | +dp/dtMax. LVSP [5, 17]: 7592±433 mmHg/sec | LVSP [5, 17]: 104±4 mmHg | +dp/dtMax. LVSP [5, 18]: 8362±498 mmHg/sec | LVSP [5, 18]: 110±4 mmHg | oral median lethal dose (LD50) ([6]; rat, in vivo, po): 1500 mg/kg | morphology of ischemic myocardium under light and transmission electron microscope ([7]; compound B 2 mg/kg, comparing with non-ischemia myocytes): Damages of both myocytes and mitochondria were not evident | solubility in water [8]: not Readily Dissolved in Water | VF Duration ([2]; 2 mg/kg): 1 s | VT Duration ([2]; 2 mg/kg): 21 + 12 sec | VTorVF Onset ([2]; 2 mg/kg): 660 + 178 sec | VT + VF score ([2]; 2 mg/kg): 22 + 13 | animals dead during cardiac ischemia ([2]; compound B 2 mg/kg, n=5, control: 3 out of 11 dead): none of the animals are dead

CC1=NN(c2ccccc2)C(=O)C1 [Edaravone, reference compound]
Duration of mouth-opening [4, 15]: 17.1 ± 4.3 s | Frequency of mouth-opening [4, 15]: 13.1 ± 2.4

C[C@@]12CC[C@@H]3[C@@](CC[C@H]4[C@@]3(C)CCC[C@@]4(C)C(=O)O)(CC1=O)C2 [Compound A, (4α,8β,13β)-13-methyl-16-oxo-17-norkauran-18-oic acid]
no obvious toxicity dose [9]: up to 40 mg/kg | effect of a large dose on vessels and arterial pressure [10]: vasodilation and lowering of arterial pressure | size of infarction after ischemia [11]: 45.8±2.9% | Duration of mouth-opening [4, 19]: 22.9 ± 5 s | Frequency of mouth-opening [4, 19]: 14.0 ± 3.2 | minimum oral lethal dose [12]: 5060 mg/kg | hypotension effect ([5]; 1 mg/kg intravenous in rats): no such hypotension effect | +dp/dt Max.LVSP [5, 20]: 8543 ± 486 mmHg/sec | HR [5, 20]: 367 ± 13 beat/min | LVSP [5, 20]: 111 ± 4 mmHg | MAP [5, 20]: 73 ± 3 mmHg | +dp/dt Max.LVSP [5, 21]: 7468 ± 558 mmHg/sec | HR [5, 21]: 375 ± 10 beat/min | LVSP [5, 21]: 103 ± 3 mmHg | MAP [5, 21]: 70 ± 5 mmHg | +dp/dt Max.LVSP [5, 22]: 8431 ± 340 mmHg/sec | HR [5, 22]: 394 ± 7 beat/min | LVSP [5, 22]: 114 ± 5 mmHg | MAP [5, 22]: 76 ± 3 mmHg | LD50 ([6]; intraperitoneal, rats): 617 mg/kg | median lethal dose (LD50) ([6]; intravenous injection, rats): 503 mg/kg | major symptoms of toxicity at lethal dose ([6]; lethal dose): vasodilation and renal failure | minimum oral lethal dose ([6]; oral, rats): 3160 mg/kg | oral median lethal dose (LD50) ([6]; oral, rats): 3160 mg/kg | morphology of ischemic myocardium under light microscope ([7]; compound A 1 mg/kg, 100× microscope): Destruction of myocytes was not evident | ultra structure of ischemic myocytes under electron microscope ([7]; compound A 1 mg/kg, ×12000, comparing with non-ischemia myocytes): no observable damages of the myocytes and mitochondria | solubility in water [8]: not Readily Dissolved in Water | VF Duration ([2]; 1 mg/kg): 1 s | VT Duration ([2]; 1 mg/kg): 12 + 6 sec | VTorVF Onset ([2]; 1 mg/kg): 730 + 166 sec | VT + VF score ([2]; 1 mg/kg): 14 + 7 | survival of cardiac ischemia ([2]; compound A 1 mg/kg, control: 3 out of 11 dead due to continuation of VF): all the animal survived | sever arrhythmia induced by ischemia ([13]; pig pretreated at a small dose): effectively prevented | cardiac contractile function ([13]; pig, extremely high dose (20 times more) administered via LAD): significant decrease in cardiac contractile function | effects on heart before ischemia ([13]; pig, small dose): no observable effects on heart | median lethal dose (LD50) [14]: 650 mg/kg
